Reference: PubChem BioAssay AID1259407 (Chemical Carcinogenesis Research Information System (CCRIS), 2018)
“Also recorded” adds a separate entry of the source. Active and inactive are the calls of the source. How the calls were made is not given here.

Tested on: CCRIS mutagenicity, Ames/micronucleus/aberration tests
Experiment: CCRIS mutagenicity studies
[1] = Test System: AMES SALMONELLA TYPHIMURIUM, Strain/Indicator: TA98, Metabolic Activation: NONE, Method: PREINCUBATION
[2] = Test System: AMES SALMONELLA TYPHIMURIUM, Strain/Indicator: TA100, Metabolic Activation: NONE, Method: PREINCUBATION
[3] = Test System: AMES SALMONELLA TYPHIMURIUM, Strain/Indicator: TA1535, Metabolic Activation: NONE, Method: PREINCUBATION

CNC(C)Cc1ccc2c(c1)OCO2 (stereo not drawn)
mutagenic call (End Point: In vitro micronucleus, Test System: Chinese hamster lung fibroblast, Metabolic Activation: Hamster, Liver, S-9, Phenobarbital sodium and 5,6-benzoflavone): inactive; negative. n-nitroso-3,4-methylenedioxymethamphetamine (500-900 ug/ml), expected | mutagenic call (End Point: In vitro micronucleus, Test System: Chinese hamster lung fibroblast, Metabolic Activation: None): inactive; negative. n-nitroso-3,4-methylenedioxymethamphetamine (200-600 ug/ml), expected; also recorded: inactive; negative. n-nitroso-3,4-methylenedioxymethamphetamine (50-300 ug/ml), expected t | mutagenic call (End Point: In vitro micronucleus, Test System: Chinese hamster lung fibroblast, Metabolic Activation: Rat, Liver, S-9, Phenobarbital sodium and 5,6-benzoflavone): inactive; negative. n-nitroso-3,4-methylenedioxymethamphetamine (500-900 ug/ml), expected

ClC1=C(Cl)C2(Cl)C3C(Cl)C(Cl)CC3C1(Cl)C2(Cl)Cl (stereo not drawn)
mutagenic call (Test System: AMES SALMONELLA TYPHIMURIUM, Strain/Indicator: TA98, Metabolic Activation: HAMSTER, LIVER, S-9, AROCLOR 1254 (5, 10 OR 30%), Method: PREINCUBATION): inactive; negative | mutagenic call [1]: inactive; negative | mutagenic call (Test System: AMES SALMONELLA TYPHIMURIUM, Strain/Indicator: TA98, Metabolic Activation: RAT, LIVER, S-9, AROCLOR 1254 (5, 10 OR 30%), Method: PREINCUBATION): inactive; negative | mutagenic call (Test System: AMES SALMONELLA TYPHIMURIUM, Strain/Indicator: TA100, Metabolic Activation: HAMSTER, LIVER, S-9, AROCLOR 1254 (30%), Method: PREINCUBATION): active; positive | mutagenic call (Test System: AMES SALMONELLA TYPHIMURIUM, Strain/Indicator: TA100, Metabolic Activation: NONE, Method: DESICCATOR): active; positive | mutagenic call [2]: inactive; negative | mutagenic call (Test System: AMES SALMONELLA TYPHIMURIUM, Strain/Indicator: TA100, Metabolic Activation: RAT, LIVER, S-9, AROCLOR 1254 (30%), Method: PREINCUBATION): active; positive | mutagenic call (Test System: CHINESE HAMSTER V-79, Strain/Indicator: V-79/OUABAIN, Metabolic Activation: NONE, Method: STANDARD PLATE): active; positive

CC(C)(c1cc(Br)c(O)c(Br)c1)c1cc(Br)c(O)c(Br)c1
mutagenic call (Test System: AMES SALMONELLA TYPHIMURIUM, Strain/Indicator: TA98, Metabolic Activation: HAMSTER, LIVER, S-9, AROCLOR 1254 (10%), Method: PREINCUBATION): inactive; negative | mutagenic call [1]: inactive; negative | mutagenic call (Test System: AMES SALMONELLA TYPHIMURIUM, Strain/Indicator: TA98, Metabolic Activation: RAT, LIVER, S-9, AROCLOR 1254 (10%), Method: PREINCUBATION): inactive; negative | mutagenic call (Test System: AMES SALMONELLA TYPHIMURIUM, Strain/Indicator: TA100, Metabolic Activation: HAMSTER, LIVER, S-9, AROCLOR 1254 (10%), Method: PREINCUBATION): inactive; negative | mutagenic call [2]: inactive; negative | mutagenic call (Test System: AMES SALMONELLA TYPHIMURIUM, Strain/Indicator: TA100, Metabolic Activation: RAT, LIVER, S-9, AROCLOR 1254 (10%), Method: PREINCUBATION): inactive; negative | mutagenic call (Test System: AMES SALMONELLA TYPHIMURIUM, Strain/Indicator: TA1535, Metabolic Activation: HAMSTER, LIVER, S-9, AROCLOR 1254 (10%), Method: PREINCUBATION): inactive; negative | mutagenic call [3]: inactive; negative | mutagenic call (Test System: AMES SALMONELLA TYPHIMURIUM, Strain/Indicator: TA1535, Metabolic Activation: RAT, LIVER, S-9, AROCLOR 1254 (10%), Method: PREINCUBATION): inactive; negative | mutagenic call (Test System: AMES SALMONELLA TYPHIMURIUM, Strain/Indicator: TA1537, Metabolic Activation: HAMSTER, LIVER, S-9, AROCLOR 1254 (10%), Method: PREINCUBATION): inactive; negative | mutagenic call (Test System: AMES SALMONELLA TYPHIMURIUM, Strain/Indicator: TA1537, Metabolic Activation: NONE, Method: PREINCUBATION): inactive; negative | mutagenic call (Test System: AMES SALMONELLA TYPHIMURIUM, Strain/Indicator: TA1537, Metabolic Activation: RAT, LIVER, S-9, AROCLOR 1254 (10%), Method: PREINCUBATION): inactive; negative

CN1CC[C@@]2(C)c3cc(O)ccc3N(C)[C@@H]12
mutagenic call (Test System: AMES SALMONELLA TYPHIMURIUM, Strain/Indicator: TA97, Metabolic Activation: NONE, Method: STANDARD PLATE): inactive; negative | mutagenic call (Test System: AMES SALMONELLA TYPHIMURIUM, Strain/Indicator: TA97, Metabolic Activation: S-9, Method: STANDARD PLATE): inactive; negative | mutagenic call (Test System: AMES SALMONELLA TYPHIMURIUM, Strain/Indicator: TA98, Metabolic Activation: NONE, Method: STANDARD PLATE): inactive; negative | mutagenic call (Test System: AMES SALMONELLA TYPHIMURIUM, Strain/Indicator: TA98, Metabolic Activation: S-9, Method: STANDARD PLATE): inactive; negative | mutagenic call (Test System: AMES SALMONELLA TYPHIMURIUM, Strain/Indicator: TA100, Metabolic Activation: NONE, Method: STANDARD PLATE): inactive; negative | mutagenic call (Test System: AMES SALMONELLA TYPHIMURIUM, Strain/Indicator: TA100, Metabolic Activation: S-9, Method: STANDARD PLATE): inactive; negative | mutagenic call (Test System: AMES SALMONELLA TYPHIMURIUM, Strain/Indicator: TA104, Metabolic Activation: NONE, Method: STANDARD PLATE): inactive; negative | mutagenic call (Test System: AMES SALMONELLA TYPHIMURIUM, Strain/Indicator: TA104, Metabolic Activation: S-9, Method: STANDARD PLATE): inactive; negative | mutagenic call (Test System: AMES SALMONELLA TYPHIMURIUM, Strain/Indicator: TA1535, Metabolic Activation: NONE, Method: STANDARD PLATE): inactive; negative | mutagenic call (Test System: AMES SALMONELLA TYPHIMURIUM, Strain/Indicator: TA1535, Metabolic Activation: S-9, Method: STANDARD PLATE): inactive; negative | mutagenic call (Test System: AMES SALMONELLA TYPHIMURIUM, Strain/Indicator: TA1537, Metabolic Activation: NONE, Method: STANDARD PLATE): inactive; negative | mutagenic call (Test System: AMES SALMONELLA TYPHIMURIUM, Strain/Indicator: TA1537, Metabolic Activation: S-9, Method: STANDARD PLATE): inactive; negative | mutagenic call (Test System: AMES SALMONELLA TYPHIMURIUM, Strain/Indicator: TA1538, Metabolic Activation: S-9, Method: STANDARD PLATE): inactive; negative

CCCCCCCCC1OC1CCCCCCCC(=O)OCC(CC)CCCC (stereo not drawn)
mutagenic call (Test System: AMES SALMONELLA TYPHIMURIUM, Strain/Indicator: TA97, Metabolic Activation: HAMSTER, LIVER, S-9, AROCLOR 1254 (10% & 30%), Method: PREINCUBATION): inactive; negative | mutagenic call (Test System: AMES SALMONELLA TYPHIMURIUM, Strain/Indicator: TA97, Metabolic Activation: NONE, Method: PREINCUBATION): inactive; negative | mutagenic call (Test System: AMES SALMONELLA TYPHIMURIUM, Strain/Indicator: TA97, Metabolic Activation: RAT, LIVER, S-9, AROCLOR 1254 (10% & 30%), Method: PREINCUBATION): inactive; negative | mutagenic call (Test System: AMES SALMONELLA TYPHIMURIUM, Strain/Indicator: TA98, Metabolic Activation: HAMSTER, LIVER, S-9, AROCLOR 1254 (10% & 30%), Method: PREINCUBATION): inactive; negative | mutagenic call [1]: inactive; negative | mutagenic call (Test System: AMES SALMONELLA TYPHIMURIUM, Strain/Indicator: TA98, Metabolic Activation: RAT, LIVER, S-9, AROCLOR 1254 (10% & 30%), Method: PREINCUBATION): inactive; negative | mutagenic call (Test System: AMES SALMONELLA TYPHIMURIUM, Strain/Indicator: TA100, Metabolic Activation: HAMSTER, LIVER, S-9, AROCLOR 1254 (10% & 30%), Method: PREINCUBATION): inactive; negative | mutagenic call [2]: inactive; negative | mutagenic call (Test System: AMES SALMONELLA TYPHIMURIUM, Strain/Indicator: TA100, Metabolic Activation: RAT, LIVER, S-9, AROCLOR 1254 (10% & 30%), Method: PREINCUBATION): inactive; negative | mutagenic call (Test System: AMES SALMONELLA TYPHIMURIUM, Strain/Indicator: TA1535, Metabolic Activation: HAMSTER, LIVER, S-9, AROCLOR 1254 (10% & 30%), Method: PREINCUBATION): inactive; negative | mutagenic call [3]: inactive; negative | mutagenic call (Test System: AMES SALMONELLA TYPHIMURIUM, Strain/Indicator: TA1535, Metabolic Activation: RAT, LIVER, S-9, AROCLOR 1254 (10% & 30%), Method: PREINCUBATION): inactive; negative
